# Measured values from patent US11725015B2, “Macrocyclic compound and uses thereof” (President and Fellows of Harvard College, priority 2017, dated 2023).
# Columns and labels:
# [1] = test system: human breast cancer cell line MDA-MB231; test: MDA-MB231 growth inhibition assay; format: cell-based; details: 3 days incubation, CellTiter-Glo
# Procedure: In this assay, the growth inhibitory activity of test compounds in a human breast cancer cell line MDA-MB231 was measured. MDA-MB231 cells were maintained in Dulbecco's Modified Eagle's medium (Wako Pure Chemical Industries, Ltd., 044-29765) medium containing 10% fetal bovine serum (FBS: Nichirei, 12D168), and penicillin and streptomycin in a 5% CO2 incubator (37° C.). To each well of a 96 well plate (Becton, Dickinson and Company, 353219), 75 μL of MDA-MB231 cell suspension adjusted to a concentration of 4×10^4 cells/mL with the culture medium was added, and the cells were incubated overnight in a 5% CO2 incubator (37° C.). On the next day, 25 μL of Compound (1) or Halichondrin B in three-fold dilution series suspended in the culture medium was added to each well, and the resultant was incubated for 3 days in a 5% CO2 incubator (37° C.). Then, cell viability was determined by CellTiter-Glo® Luminescent Cell Viability Assay (Promega) with EnVision 2103 Multilabel Reader (Perkin-Elmer, Wellesley, Mass.). Value of the wells containing cells without adding the test compounds was defined as 100% and the value of the wells containing no cells was defined as 0%. The concentration of the test compound necessary for inhibiting the cell growth by 50% (i.e., an IC50 value) was calculated, and shown in Table 2.
# [2] = test system: COLO-704 subcutaneous xenograft; test: Antitumor effects in the COLO-704 xenograft model in mice as monotherapy; format: in vivo
# Procedure: A human ovarian cancer cell line COLO-704, which had been cultured in a RPMI-1640 containing 10% FBS, and penicillin-streptomycin, was adjusted to a concentration of 1×10^8 cells/mL with Hanks' Balanced Salt Solution to prepare a cell suspension. The cell suspension was inoculated in a volume of 100 μL into a subcutaneous part of a right flank of nude mice, 5 weeks of ages (CAnN.Cg-Foxn1nu/CrlCrlj, female, Charles River Laboratories Japan Inc.). Nine days after cell inoculation (Day 1), the shortest diameter and the longest diameter of a tumor in each mouse were measured by using an electronic digital caliper (Digimatic™ caliper, Mitutoyo Corporation), so as to calculate the volume of the tumor in accordance with the following calculation formulae: Tumor volume (mm^3)=Longest diameter (mm)×Shortest diameter (mm)×Shortest diameter (mm)/2 Relative tumor volume (RTV)=Tumor volume (day X)/Tumor volume (the first day) Relative body weight (RBW)=Body weight (day X)/Body weight (the first day)
# On the basis of the volumes of tumors obtained on Day 1, the mice were grouped such that averages of the tumor volumes were substantially equal among the groups. The experiment was conducted on groups each consisting of six mice. The test compound was dissolved in DMSO and a solution was stored in the freezer before use. Immediately before the administration, the stock solution was diluted with saline. The test compound in saline was intravenously once-weekly administered at 20 μg/kg, 60 μg/kg, or 180 μg/kg for 2 weeks (on Day 1 and Day 8).
# [3] = test system: CTG-2041 (human angiosarcoma) tumor fragments; test: Antitumor effects in CTG-2041 soft tissue sarcoma xenograft model in mice as monotherapy; format: in vivo; details: 100 μg/kg intravenously on Day 1 and Day 8
# Excerpt: Tumor fragments of human angiosarcoma CTG-2041 were implanted s.c. in the left flank of female mice. Tumor growth was monitored twice a week using digital caliper, so as to calculate the volume of the tumor in accordance with the following calculation formula: Tumor volume (mm^3)=Longest diameter (mm)×Shortest diameter (mm)×Shortest diameter (mm)/2 Relative tumor volume (RTV)=Tumor volume (day X)/Tumor volume (the first day)
# When the volume of tumors reached approximately 200 mm^3, animals are matched by tumor volume into treatment or control groups and dosing initiated on Day 1. Each group was consisted with five mice. Compound (1) was dissolved in DMSO and a solution was stored in the freezer before use. Compound (1) (100 μg/kg) diluted in saline and intravenously injected on Day 1 and Day 8.
# [4] = test system: AN3CA (human endometrial cancer) xenograft; test: Antitumor effects in AN3CA endometrial cancer xenograft model in mice as monotherapy; format: in vivo; details: 180 μg/kg intravenously on Day 1 and Day 8
# Procedure: A human endometrial cancer cell line AN3CA, which had been cultured in an E-MEM containing 10% FBS, and penicillin-streptomycin, was adjusted to a concentration of 1.4×10^8 cells/mL with Hanks' Balanced Salt Solution to prepare a cell suspension, and the suspension was mixed with Geltrex® (Thermo Fisher Scientific Inc., #A1413202) in a ratio of 1:1 to prepare a cell suspension in a concentration of 7×10^7 cells/mL. The cell suspension was inoculated in a volume of 100 μL into a subcutaneous part of a right flank of nude mice, 6 weeks of ages (CAnN.Cg-Foxnlnu/CrlCrlj, female, Charles River Laboratories Japan Inc.). Twelve days after cell inoculation (Day 1), the shortest diameter and the longest diameter of a tumor in each mouse were measured by using an electronic digital caliper (Digimatic™ caliper, Mitutoyo Corporation), so as to calculate the volume of the tumor in accordance with the following calculation formulae: Tumor volume (mm^3)=Longest diameter (mm)×Shortest diameter (mm)×Shortest diameter (mm)/2 Relative tumor volume (RTV)=Tumor volume (day X)/Tumor volume (the first day)
# On the basis of the volumes of tumors obtained on Day 1, the mice were grouped such that averages of the tumor volumes were substantially equal among the groups. The experiment was conducted on groups each consisting of five mice. […]
structure (smiles),measurement,setting,value
C=C1C[C@@H]2CC[C@@]34C[C@H]5O[C@H]6[C@@H](O3)[C@H]3O[C@H](CC[C@@H]3O[C@H]6C5O4)CC(=O)O[C@@H]3[C@@H](C)[C@@H]4O[C@@H]5C[C@]6(C[C@@H]7O[C@]8(C[C@H](C)[C@@H]9O[C@H](CN)[C@H](O)C[C@@H]9O8)C[C@H](C)[C@@H]7O6)O[C@@H]5C[C@@H]4O[C@H]3C[C@H]3O[C@@H](CC[C@@H]1O2)C[C@@H](C)C3=C [Compound (1)],IC50,[1],0.109 nM
same,antitumor effect,[2]; 60 μg/kg intravenously on Day 1 and Day 8,tumor growth delay
same,antitumor effect,[2]; 180 μg/kg intravenously on Day 1 and Day 8,tumor regression
same,eradication of xenograft tumors,"[2]; 180 μg/kg, on Day 22",completely eradicated the xenograft tumors in all mice
same,antitumor activity,[3],tumor regression
same,antitumor activity,[4],tumor regression
